{
  "source": "patent US9962378B2",
  "about": "“ROS1 inhibitor and its use” (Macau University of Science and Technology, priority 2015, dated 2018)",
  "format_in_all_cases": "cell-based",
  "key": {"[1]": {"tested_on": "HCC78 cells", "experiment": "Annexin-V FITC/PI flow cytometry apoptosis assay", "conditions": "HCC78 cells, 2.5, 5 and 10 μM, 24 h, compared to control group; concentration-dependent", "protocol": "HCC78 cells (1.0×10^5 cells/well) were allowed to attach in a 6-well plates for 24 h, cells were treated with the compound of Formula (V) for 24 h. Subsequently, cells were trypsinized, washed with PBS and stained with 100 μL binding buffer containing 2 μL Annexin-V FITC and 4 μL propidine iodide (PI) incubated in the dark at room temperature for 15 min, before further addition of 400 μL of 1× Annexin-binding buffer. The stained cells were analyzed quantitatively using a Flow Cytometer (BD Biosciences, San Jose, Calif., USA). Data were analyzed by Flow Jo software."}, "[2]": {"tested_on": "HCC78 cells", "experiment": "colony formation assay", "conditions": "HCC78 cells, 1.25, 2.5 and 5 μM, 10 days; dose-dependent", "protocol": "Still further, inhibitory effect of the compound of Formula (V) on the colony formation in HCC78 cells has been tested to provide further evidence that the compound of Formula (V) inhibits the formation of colonies of cancerous cell to an exceptional degree, too.\nHCC78 cells were seeded on a six-well plate at a density of 500 cells per well. The cells were exposed to various concentrations of the compound of Formula (V). After 10 days, the colonies were fixed with 4% paraformaldehyde and stained with a 0.5% (0.5% w/v) crystal violet solutions, the number of colonies >50 was counted under a dissecting microscope and surviving fractions were calculated."}, "[3]": {"tested_on": "HCC78 NSCLC cells (with ROS1 rearrangement)", "experiment": "MTT cytotoxicity assay on HCC78 NSCLC cells", "conditions": "Homo sapiens, 72 h, mean±SEM, read-out: IC50 (cell viability, MTT)", "protocol": "(§1) HCC78 cells and CCD19-Lu cells were obtained from the American Type Culture Collection and cultured in environment of 5% CO2 at 37° C. in RPMI-1640 (GIBCO, Lift Technologies) medium supplemented with 10% fetal bovine serum (FBS) (GIBCO, Lift Technologies), 100 units/mL penicillin, and 100 μg/mL streptomycin (GIBCO, Lift Technologies), crizotinib was purchased from Selleck Chemicals.\n(§2) For MTT assay, 3000 cells were seeded on 96-well plates, then treated with DMSO or various concentrations of the compound of Formula (V) for 72 h. At the end of the incubation, 10 μL of MTT (5 mg/mL; Sigma) was added into each well, and the plates were incubated for an additional 4 hours, then the dark blue crystals were dissolved in 100 μL of the resolved solution (10% SDS and 0.1 mM HCL). Finally, the absorbance was measured by a microplate reader at 570 nm (Tecan, Morrisville, N.C., USA). The cell viability was calculated relative to untreated controls, with results based on at least three independent experiments."}, "[4]": {"tested_on": "normal lung cells (CCD19-Lu)", "experiment": "MTT cytotoxicity assay on normal lung cells", "conditions": "Homo sapiens, CCD 19Lu, 72 h, 0-20 μM, read-out: IC50 (cell viability, MTT)", "protocol": "as §1, §2"}, "[5]": {"tested_on": "ROS1 phosphorylation and ROS1 downstream signaling molecules pERK1/2, pSTAT3 and pAKT", "experiment": "western blot of ROS1 phosphorylation and downstream signaling", "conditions": "HCC78 cells, 2.5, 5 and 10 μM, dose-dependent", "protocol": "Additionally, the suppression of ROS1 phosphorylation as well as its downstream signaling pathway by the compound of Formula (V) has been studied.\nCells exposed to different concentrations of compound of Formula (V), namely 2.5, 5 and 10 μM or 2.5 μM crizotinib as described above and a control group were washed twice with cold PBS then lysed in RIPA lysis buffer containing protease and phosphatase inhibitors, protein concentration of the cell lysates were measured using the Bio-Rad protein Assay kit (Bio-Rad, Philadelphia, Pa., USA). After equalizing the protein concentrations of the samples, 5× laemmli buffer was added and boiled at 100° C. for 5 min. Equal amounts of protein (20-40 μg per lane) were separated with a 10% SDS-PAGE gel, then the separated proteins were transferred to a nitrocellulose (NC) membrane, which was then exposed to 5% non-fat dry milk in TBS containing 0.1% Tween 20 (0.1% TBST) for 1 hour at room temperature with constant agitation, followed by overnight incubation at 4° C. with primary antibodies, after washing 3 times by TBST, the membranes were incubated with secondary rabbit or mouse fluorescent antibodies, the signal intensity of the membranes was detected by an LI-COR Odessy scanner (Belfast, Me., USA). Antibodies against GAPDH, p-AKT, p-ROS1, ROS1, p-ERK, ERK, p-STAT3, STAT3 were purchased from Cell signaling Technology. […]"}},
  "data": [
    {"smiles": "CCN(CC)CCNC(=O)c1cc2c(=O)n(C)c3cc(Cl)ccc3c2s1", "note": "[compound of Formula (V)]", "values": [
      {"measurement": "induction of apoptosis", "setting": "[1]", "value": "induced significant levels of cell apoptosis compared to the control group"},
      {"measurement": "formation of HCC78 cell colonies", "setting": "[2]", "value": "advantageously inhibited the formation of HCC78 cell colonies"},
      {"measurement": "IC50", "setting": "[3]", "value": "6.35 ± 1.44", "unit": "µM"},
      {"measurement": "IC50", "setting": "[4]", "value": "> 20", "unit": "µM"},
      {"measurement": "ROS1 downstream signaling molecules pERK1/2, pSTAT3 and pAKT", "setting": "[5]", "value": "inhibition"},
      {"measurement": "ROS1 phosphorylation", "setting": "[5]", "value": "inhibition of ROS1 phosphorylation"}
    ]}
  ]
}
